Assays:
[1] = test system: VEGFR2 phosphorylation at Y1175 in CAD cells; test: In cell western for inhibition of VEGFR2 activation by VEGF-A165; format: cell-based, mouse; settings: compounds at 12.5 μM, 1 nM VEGF-A165, 1 hour
VSV-eGFP-SARS-CoV-2 = format: cell-based, vesicular stomatitis virus; settings: 25 µM

Question: Which results are given for `NC(N)=NCCC[C@H](NC(=O)c1sccc1NS(=O)(=O)c1cccc2nsnc12)C(=O)O` [Compound A]?
Answer: block of VEGF-A stimulated increased phosphorylation of VEGFR2 (pY1175) [1]: blocked; inhibition of VSV-eGFP-SARS-CoV-2 entry into cells (VSV-eGFP-SARS-CoV-2): ineffective

— paper PMC8029449 (ACS chemical neuroscience, 2021)
